Data reported in the CheMixHub viscosity set.
± gives the uncertainty stated by the source.

Assay: xn = mol fraction of the nth substance listed

CNC=O + Cc1ccccc1N
viscosity [mPa·s], 100 kPa
Details	x1 = 0.0896	x1 = 0.1601	x1 = 0.2501	x1 = 0.3425	x1 = 0.4328	x1 = 0.5424	x1 = 0.6554	x1 = 0.7342	x1 = 0.8414
303.15 K	3.114 ± 0.065	3 ± 0.064	2.853 ± 0.064	2.702 ± 0.063	2.553 ± 0.063	2.369 ± 0.062	2.179 ± 0.062	2.045 ± 0.062	1.86 ± 0.061
308.15 K	2.708 ± 0.064	2.617 ± 0.063	2.498 ± 0.063	2.375 ± 0.063	2.254 ± 0.062	2.105 ± 0.062	1.95 ± 0.062	1.84 ± 0.061	1.689 ± 0.061
313.15 K	2.393 ± 0.063	2.317 ± 0.063	2.219 ± 0.062	2.117 ± 0.062	2.016 ± 0.062	1.892 ± 0.062	1.763 ± 0.061	1.671 ± 0.061	1.544 ± 0.061
318.15 K	2.081 ± 0.062	2.022 ± 0.062	1.946 ± 0.062	1.865 ± 0.062	1.786 ± 0.062	1.688 ± 0.061	1.585 ± 0.061	1.513 ± 0.061	1.411 ± 0.061

c1ccc2c(c1)CCCC2 + c1ccccc1
298.15 K, 101 kPa
Details	viscosity [mPa·s]
x1 = 0.1394	0.719 ± 0.0095
x1 = 0.3016	0.8758 ± 0.011
x1 = 0.493	1.098 ± 0.014
x1 = 0.7222	1.445 ± 0.019

O=C(O)CC(=O)O + C[N+](C)(C)CCO.[Cl-]
viscosity [mPa·s]
Details	293.15 K	293.2 K	298.15 K	303.15 K	303.2 K	308.15 K	313.15 K	313.2 K	318.15 K	323.15 K
100 kPa, x2 = 0.5	2016 ± 120	–	1389 ± 80	982.9 ± 54	–	710.7 ± 37	524.5 ± 26	–	393.9 ± 19	301.2 ± 14
101 kPa, x2 = 0.5	1651 ± 340	–	1084 ± 220	679.6 ± 140	–	486.4 ± 99	372.5 ± 75	–	286.5 ± 58	207.2 ± 42
101.3 kPa, x2 = 0.502	–	1600 ± 200	–	–	1029 ± 140	–	–	615 ± 80	–	–

CC(C)OCCO + CC(=O)N(C)C
298.15 K, 101 kPa
Details	viscosity [mPa·s]
x1 = 0.0063	0.956 ± 0.012
x1 = 0.014	0.97 ± 0.012
x1 = 0.0243	0.983 ± 0.012
x1 = 0.0518	1.016 ± 0.013
x1 = 0.0792	1.049 ± 0.013
x1 = 0.1131	1.092 ± 0.014
x1 = 0.1712	1.167 ± 0.015
x1 = 0.2095	1.225 ± 0.016
x1 = 0.2923	1.336 ± 0.017
x1 = 0.3534	1.422 ± 0.018
x1 = 0.3673	1.443 ± 0.019
x1 = 0.3996	1.494 ± 0.019
x1 = 0.4419	1.555 ± 0.02
x1 = 0.4958	1.63 ± 0.022
x1 = 0.5445	1.704 ± 0.023
x1 = 0.6028	1.782 ± 0.024
x1 = 0.6671	1.871 ± 0.026
x1 = 0.7594	1.973 ± 0.028
x1 = 0.8097	2.044 ± 0.029
x1 = 0.867	2.083 ± 0.03
x1 = 0.9066	2.098 ± 0.031
x1 = 0.9627	2.102 ± 0.032
x2 = 0.006	2.106 ± 0.032
x2 = 0.0146	2.105 ± 0.032

C[N+](C)(C)C.[OH-] + O
viscosity [mPa·s], 101 kPa
Details	x1 = 0.00504	x1 = 0.0103	x1 = 0.02149	x1 = 0.0337	x1 = 0.04708	x1 = 0.06181	x1 = 0.07809
298.15 K	0.9677 ± 0.017	1.119 ± 0.02	1.278 ± 0.023	1.627 ± 0.03	1.978 ± 0.038	3.087 ± 0.06	4.216 ± 0.084
303.15 K	0.8674 ± 0.015	1.007 ± 0.018	1.148 ± 0.021	1.39 ± 0.026	1.751 ± 0.033	2.66 ± 0.051	3.571 ± 0.071
313.15 K	0.7118 ± 0.013	0.818 ± 0.015	0.9314 ± 0.017	1.158 ± 0.021	1.399 ± 0.026	2.031 ± 0.039	2.665 ± 0.053
323.15 K	0.5982 ± 0.011	0.678 ± 0.012	0.7738 ± 0.014	0.971 ± 0.018	1.148 ± 0.022	1.587 ± 0.031	2.067 ± 0.041

CCOS(=O)(=O)[O-].CC[N+](CC)=C(N(C)C)N(C)C + CCO
viscosity [mPa·s], 100 kPa
Details	x1 = 0.1001	x1 = 0.2003	x1 = 0.2998	x1 = 0.4023	x1 = 0.4998	x1 = 0.6016	x1 = 0.6979	x1 = 0.8024	x1 = 0.8974
293.15 K	2.916 ± 0.024	5.857 ± 0.048	11.49 ± 0.09	20.43 ± 0.17	32.82 ± 0.29	54.53 ± 0.43	82.56 ± 1.6	121 ± 3.8	160.5 ± 6.6
298.15 K	2.62 ± 0.021	5.197 ± 0.042	9.941 ± 0.081	17.2 ± 0.14	27.12 ± 0.23	43.51 ± 0.41	64.03 ± 0.74	91.64 ± 2	119.1 ± 3.6
303.15 K	2.373 ± 0.019	4.64 ± 0.038	8.688 ± 0.071	14.71 ± 0.12	22.61 ± 0.19	35.19 ± 0.32	50.61 ± 0.37	70.75 ± 1	90.75 ± 2
308.15 K	2.155 ± 0.017	4.166 ± 0.034	7.649 ± 0.062	12.71 ± 0.1	19.18 ± 0.16	29.07 ± 0.25	40.85 ± 0.39	55.99 ± 0.49	70.53 ± 1
313.15 K	1.964 ± 0.016	3.765 ± 0.03	6.793 ± 0.055	11.08 ± 0.09	16.48 ± 0.14	24.39 ± 0.21	33.63 ± 0.3	45.19 ± 0.45	56.15 ± 0.5
318.15 K	1.797 ± 0.014	3.419 ± 0.028	6.036 ± 0.049	9.76 ± 0.08	14.28 ± 0.12	20.68 ± 0.18	27.81 ± 0.24	36.81 ± 0.35	45.06 ± 0.45
323.15 K	1.649 ± 0.013	3.118 ± 0.025	5.43 ± 0.044	8.634 ± 0.071	12.47 ± 0.1	17.74 ± 0.15	23.62 ± 0.2	30.6 ± 0.28	36.93 ± 0.35

CCOCCOCCOCC + CCCO
298.15 K, 101.33 kPa
Details	viscosity [mPa·s]
x1 = 0.007	1.918 ± 0.015
x1 = 0.0129	1.894 ± 0.015
x1 = 0.0249	1.844 ± 0.015
x1 = 0.0395	1.788 ± 0.014
x1 = 0.0516	1.747 ± 0.014
x1 = 0.0695	1.687 ± 0.013
x1 = 0.097	1.611 ± 0.013
x1 = 0.1283	1.541 ± 0.012
x1 = 0.1736	1.458 ± 0.012
x1 = 0.2229	1.396 ± 0.011
x1 = 0.2672	1.354 ± 0.011
x1 = 0.3115	1.32 ± 0.011
x1 = 0.3638	1.291 ± 0.011
x1 = 0.4026	1.28 ± 0.01
x1 = 0.4592	1.259 ± 0.01
x1 = 0.5239	1.243 ± 0.01
x1 = 0.5856	1.231 ± 0.01
x1 = 0.6363	1.227 ± 0.01
x1 = 0.6742	1.225 ± 0.01
x1 = 0.7119	1.224 ± 0.01
x1 = 0.7662	1.222 ± 0.01
x1 = 0.8311	1.226 ± 0.01
x1 = 0.8815	1.231 ± 0.01
x1 = 0.9142	1.235 ± 0.01
x1 = 0.9468	1.239 ± 0.01
x1 = 0.9756	1.24 ± 0.01

CNC=O + O=C1CCCCC1
viscosity [mPa·s], 101 kPa
Details	x1 = 0.0868	x1 = 0.1762	x1 = 0.2682	x1 = 0.3632	x1 = 0.461	x1 = 0.562	x1 = 0.6662	x1 = 0.7738	x1 = 0.885
303.15 K	1.804 ± 0.084	1.786 ± 0.083	1.762 ± 0.082	1.739 ± 0.081	1.714 ± 0.08	1.693 ± 0.079	1.668 ± 0.078	1.646 ± 0.077	1.618 ± 0.076
308.15 K	1.645 ± 0.077	1.63 ± 0.077	1.61 ± 0.076	1.592 ± 0.075	1.57 ± 0.074	1.553 ± 0.073	1.532 ± 0.072	1.513 ± 0.072	1.49 ± 0.071
313.15 K	1.472 ± 0.07	1.463 ± 0.069	1.451 ± 0.069	1.439 ± 0.068	1.425 ± 0.068	1.413 ± 0.067	1.4 ± 0.067	1.387 ± 0.066	1.371 ± 0.065
318.15 K	1.284 ± 0.062	1.284 ± 0.062	1.283 ± 0.062	1.281 ± 0.062	1.278 ± 0.062	1.275 ± 0.061	1.271 ± 0.061	1.267 ± 0.061	1.262 ± 0.061

CCCCCCCCN(CCCCCCCC)CCCCCCCC + Cc1ccccc1
298.15 K, 101.33 kPa
Details	viscosity [mPa·s]
x1 = 0.015	0.595 ± 0.018
x1 = 0.033	0.646 ± 0.02
x1 = 0.075	0.775 ± 0.025
x1 = 0.231	1.405 ± 0.031
